Data: patent US20140315886A1, “QUINAZOLINES AS THERAPEUTIC COMPOUNDS AND RELATED METHODS OF USE” (OTSUKA PHARMACEUTICAL CO., LTD., priority 2011, published 2014)

Target: T1, purified STEP46 enzyme (Homo sapiens, UniProt P54829)
T1 sequence (P54829 197-565 limits assumed): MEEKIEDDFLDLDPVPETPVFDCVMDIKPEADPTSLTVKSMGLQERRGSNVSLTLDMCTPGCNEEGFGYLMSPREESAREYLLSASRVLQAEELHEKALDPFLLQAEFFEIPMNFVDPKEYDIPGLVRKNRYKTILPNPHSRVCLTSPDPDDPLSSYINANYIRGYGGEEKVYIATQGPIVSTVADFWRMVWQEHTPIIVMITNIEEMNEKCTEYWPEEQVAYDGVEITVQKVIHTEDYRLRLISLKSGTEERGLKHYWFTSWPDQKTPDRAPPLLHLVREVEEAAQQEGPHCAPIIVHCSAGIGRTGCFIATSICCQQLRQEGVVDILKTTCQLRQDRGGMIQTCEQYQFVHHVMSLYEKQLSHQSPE
Assay: STEP46 biochemical assay (DiFMUP fluorescence phosphatase assay)
Conditions: DiFMUP 10 μM, read-out: STEP IC50
Procedure, shortened: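 Purified human STEP46 preincubated 30 min at room temperature with compounds in Hepes/DTT/Brij35 buffer (2% DMSO final), then reacted with 10 μM DiFMUP for 90 min at 27°C; fluorescence read at 360/460 nm. IC50 from four-parameter fit; activation shown as negative % inhibition at 25, 50, 100 uM.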

Structure (SMILES) | IC50
CNc1nc(-c2cccnc2)nc2c(F)c(-c3ccoc3)ccc12 [Compound 530] | 1000 to 10000 nM
CNc1nc(-c2cccnc2)nc2c(F)c(-c3ccc4c(cnn4C)c3)ccc12 [Compound 532] | < 1000 nM
CNc1nc(-c2cccnc2)nc2c(F)c(-c3cccs3)ccc12 [Compound 533] | 1000 to 10000 nM
CNc1nc(-c2cccnc2)nc2c(F)c(-c3cc4ccccc4s3)ccc12 [Compound 534] | > 10000 nM
CNc1nc(-c2cccnc2)nc2c(F)c(-c3ccc4[nH]ncc4c3)ccc12 [Compound 535] | 1000 to 10000 nM
CNc1nc(-c2cccnc2)nc2c(F)c(-c3csc4ccccc34)ccc12 [Compound 537] | 1000 to 10000 nM
CNc1nc(-c2cccnc2)nc2c(F)c(-c3cccc4sccc34)ccc12 [Compound 538] | 1000 to 10000 nM
CNc1nc(-c2cccnc2)nc2c(F)c(-c3ccc(F)c(C)c3)ccc12 [Compound 541] | 1000 to 10000 nM
CNc1nc(-c2cccnc2)nc2c(F)c(-c3ccc(F)cc3OC)ccc12 [Compound 543] | 1000 to 10000 nM
CNc1nc(-c2cccnc2)nc2c(F)c(-c3ccc(OC)c(F)c3)ccc12 [Compound 544] | < 1000 nM
CNc1nc(-c2cccnc2)nc2cc(-c3cccc(F)c3)c(F)cc12 [Compound 550] | 1000 to 10000 nM
CNc1nc(-c2cccnc2)nc2cc(-c3ccc(F)cc3F)c(F)cc12 [Compound 551] | 1000 to 10000 nM
CNc1nc(-c2cccnc2)nc2cc(-c3ccccc3F)c(F)cc12 [Compound 552] | 1000 to 10000 nM
CNc1nc(-c2cccnc2)nc2cc(-c3ccc(F)cc3)c(F)cc12 [Compound 553] | 1000 to 10000 nM
CNc1nc(-c2cccnc2)nc2cc(-c3cc(F)ccc3F)c(F)cc12 [Compound 554] | 1000 to 10000 nM
CNc1nc(-c2cccnc2)nc2cc(-c3cc(F)cc(F)c3)c(F)cc12 [Compound 555] | < 1000 nM
CNc1nc(-c2cccnc2)nc2cc(-c3cccc(C#N)c3)c(F)cc12 [Compound 556] | 1000 to 10000 nM
CNc1nc(-c2cccnc2)nc2cc(-c3cccc(F)c3F)c(F)cc12 [Compound 557] | 1000 to 10000 nM
CNc1nc(-c2cccnc2)nc2cc(-c3ccc(F)c(F)c3)c(F)cc12 [Compound 558] | 1000 to 10000 nM
CNc1nc(-c2cccnc2)nc2cc(-c3ccc(C#N)cc3)c(F)cc12 [Compound 559] | 1000 to 10000 nM
CNc1nc(-c2cccnc2)nc2c(F)cc(-c3cccc(F)c3)cc12 [Compound 563] | 1000 to 10000 nM
CNc1nc(-c2cccnc2)nc2c(F)cc(-c3ccccc3OC)cc12 [Compound 566] | > 10000 nM
CNc1nc(-c2cccnc2)nc2c(F)cc(-c3ccccc3C#N)cc12 [Compound 567] | < 1000 nM
CNc1nc(-c2cccnc2)nc2c(F)cc(-c3cc(F)cc(F)c3)cc12 [Compound 569] | 1000 to 10000 nM
CNc1nc(-c2cccnc2)nc2c(F)cc(-c3cccc(C#N)c3)cc12 [Compound 570] | < 1000 nM
CNc1nc(-c2cccnc2)nc2c(F)cc(-c3ccc(C#N)cc3)cc12 [Compound 571] | 1000 to 10000 nM

Structure (SMILES) | IC50
CNc1nc(-c2cccnc2)nc2c(F)cc(-c3cc(F)ccc3F)cc12 [Compound 572] | 1000 to 10000 nM
CNc1nc(-c2cccnc2)nc2c(F)cc(-c3ccc(OC)cc3)cc12 [Compound 573] | 1000 to 10000 nM
CNc1nc(-c2cccnc2)nc2c(F)cc(-c3cccc(OC)c3)cc12 [Compound 574] | 1000 to 10000 nM
CNc1nc(-c2cccnc2)nc2c(F)cc(-c3c(F)cccc3F)cc12 [Compound 575] | 1000 to 10000 nM
CNc1nc(-c2cccnc2)nc2cc(F)c(-c3cccc(F)c3)cc12 [Compound 584] | 1000 to 10000 nM
CNc1nc(-c2cccnc2)nc2cc(F)c(-c3ccc(F)cc3)cc12 [Compound 587] | 1000 to 10000 nM
CNc1nc(-c2cccnc2)nc2cc(F)c(-c3cc(F)cc(F)c3)cc12 [Compound 588] | 1000 to 10000 nM
CNc1nc(-c2cccnc2)nc2cc(F)c(-c3cccc(C#N)c3)cc12 [Compound 589] | 1000 to 10000 nM
CNc1nc(-c2cccnc2)nc2cc(F)c(-c3cccc(OC)c3)cc12 [Compound 590] | 1000 to 10000 nM
CNc1nc(-c2cccnc2)nc2cc(F)c(-c3ccc(F)c(F)c3)cc12 [Compound 591] | < 1000 nM
CNc1nc(-c2cccnc2)nc2cc(F)c(-c3ccc(C#N)cc3)cc12 [Compound 592] | 1000 to 10000 nM
CNc1nc(-c2cccnc2)nc2cc(F)c(-c3ccccc3OC)cc12 [Compound 593] | > 10000 nM
CNc1nc(-c2cccnc2)nc2cc(F)c(-c3cccc(F)c3F)cc12 [Compound 594] | 1000 to 10000 nM
c1ccc(CNc2nc(-c3cccnc3)nc3ccc(-c4cccs4)cc23)nc1 [Compound 601] | 1000 to 10000 nM
c1ccc(CNc2nc(-c3cccnc3)nc3ccc(-c4ccoc4)cc23)nc1 [Compound 602] | 1000 to 10000 nM
CC(Nc1nc(-c2cccnc2)nc2ccc(-c3ccccc3F)cc12)c1ccccc1 (stereo not drawn) [Compound 603] | 1000 to 10000 nM
CC(Nc1nc(-c2cccnc2)nc2ccc(-c3cccc(F)c3)cc12)c1ccccc1 (stereo not drawn) [Compound 604] | 1000 to 10000 nM
CC(Nc1nc(-c2cccnc2)nc2ccc(-c3ccc(F)cc3)cc12)c1ccccc1 (stereo not drawn) [Compound 605] | 1000 to 10000 nM
CC(Nc1nc(-c2cccnc2)nc2ccc(-c3cccc(F)c3F)cc12)c1ccccc1 (stereo not drawn) [Compound 606] | 1000 to 10000 nM
CC(Nc1nc(-c2cccnc2)nc2ccc(-c3ccc(F)cc3F)cc12)c1ccccc1 (stereo not drawn) [Compound 607] | 1000 to 10000 nM
COc1cc(-c2ccc(F)cc2F)cc2c(N3CC(OC)C3)nc(-c3cccnc3)nc12 [Compound 741] | 1000 to 10000 nM
CNc1nc(-c2cnccn2)nc2ccc(-c3ccc(F)cc3F)c(F)c12 [Compound 976] | 1000 to 10000 nM
CNc1nc(-c2cnccn2)nc2ccc(-c3ccc(F)c(F)c3)c(F)c12 [Compound 977] | 1000 to 10000 nM
CNc1nc(-c2cnccn2)nc2ccc(-c3cc(F)cc(F)c3)c(F)c12 [Compound 980] | 1000 to 10000 nM
CNc1nc(-c2cnccn2)nc2c(F)c(-c3ccc(F)cc3F)ccc12 [Compound 995] | 1000 to 10000 nM
